Some test systems named below: A549 NSCLC; CAKI-1 renal; HT29 colon; MDA-MB-435; MOLT-4 leukemia; NCI/ADR-RES ovarian; RPMI-8226 leukemia; SF-268 CNS; SN12C renal; SNB-19 CNS; SW-620 colon; ACHN renal; MCF7 breast; A498 renal.
Common to all, as to test: NCI anticancer screen, dose series, 48 h

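Each compound was tested at five concentrations against cells in 96-well plates for 48 hours. TGI: concentration producing complete growth inhibition.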 Where only a bound is given, the exact number is not on record here.

Consider `COc1ccc(C2=NN(c3ccccc3)C(c3cc4cc(Br)ccc4nc3Cl)C2)cc1` (stereo unspecified), for which the TGI in the experiment on A549 NSCLC, with CAKI-1 renal, with HT29 colon, in the experiment with MDA-MB-435, in the experiment on MOLT-4 leukemia and in the experiment on NCI/ADR-RES ovarian was > 25 µM throughout. For the same compound, the TGI in the experiment with RPMI-8226 leukemia, in the experiment with SF-268 CNS, in the experiment on SN12C renal, with SNB-19 CNS and with SW-620 colon was > 25 µM throughout.

Turning to `CC1C/C(=N\N(C)C)C(C#N)(C#N)C1(C#N)C#N` (stereo unspecified), the TGI in the experiment on A549 NSCLC was 69.5 µM; with ACHN renal it was 23.1 µM; in the experiment with CAKI-1 renal, 3.38 µM; in the experiment with HT29 colon, 18.7 µM; in the experiment on MCF7 breast it was 83.8 µM; with MDA-MB-435 it was 37.4 µM. Further, the TGI in the experiment with MOLT-4 leukemia was 6.9 µM; in the experiment on NCI/ADR-RES ovarian, 75.8 µM; with RPMI-8226 leukemia, 25.5 µM; in the experiment on SF-268 CNS, 24.8 µM; in the experiment with SN12C renal, 34.4 µM; in the experiment with SNB-19 CNS, > 70.6 µM. For the same compound, the TGI in the experiment with SW-620 colon was > 100 µM.

As to `CC1(C)CN=C(Nc2ccc(Cl)cc2)S1`, the TGI in the experiment with A549 NSCLC, in the experiment on ACHN renal, in the experiment with CAKI-1 renal, with HT29 colon, in the experiment with MCF7 breast and with MDA-MB-435 was > 100 µM throughout. The TGI with MOLT-4 leukemia, in the experiment with NCI/ADR-RES ovarian, with RPMI-8226 leukemia, in the experiment on SF-268 CNS, in the experiment with SN12C renal and in the experiment with SNB-19 CNS was > 100 µM throughout. For the same compound, the TGI in the experiment on SW-620 colon is > 100 µM.

As to `CC(=O)O[C@H]1CC[C@@]2(C)C(=CC[C@@H]3[C@@H]2CC[C@]2(C)C(=N/O)/C(=C/c4ccc([N+](=O)[O-])cc4)C[C@@H]32)C1`, the TGI in the experiment on A498 renal is 25.5 µM; in the experiment with A549 NSCLC, > 100 µM; in the experiment with ACHN renal it was > 100 µM; with CAKI-1 renal, 6.1 µM; in the experiment on HT29 colon it was > 100 µM; with MDA-MB-435 it was 29.3 µM. The TGI with MOLT-4 leukemia is > 100 µM; with NCI/ADR-RES ovarian it was > 100 µM; in the experiment with RPMI-8226 leukemia, > 100 µM; in the experiment on SF-268 CNS, > 100 µM; with SN12C renal it was 87.3 µM; in the experiment on SNB-19 CNS, 37.1 µM. Further, the TGI in the experiment on SW-620 colon is > 100 µM.

On to `COC(=O)/C=C1/N=C(N(C)/N=C/c2ccccc2)NC1=O`, for which the TGI with A549 NSCLC, in the experiment with CAKI-1 renal, with HT29 colon, with MCF7 breast, with MOLT-4 leukemia and in the experiment on NCI/ADR-RES ovarian was > 100 µM each time. For the same compound, the TGI with SF-268 CNS, with SN12C renal, with SNB-19 CNS and with SW-620 colon was > 100 µM throughout.

As for `O=C(N/N=C1/C(=O)c2c3ccccc3cc3cccc1c23)c1cccc(Cl)c1`, the TGI in the experiment on A498 renal, in the experiment with A549 NSCLC, in the experiment with ACHN renal, in the experiment on CAKI-1 renal, in the experiment with HT29 colon and in the experiment with MDA-MB-435 was > 100 µM in each case. Further, the TGI in the experiment on MOLT-4 leukemia, in the experiment on NCI/ADR-RES ovarian, in the experiment with RPMI-8226 leukemia, in the experiment with SN12C renal, in the experiment with SNB-19 CNS and with SW-620 colon was > 100 µM each time.

With `CC(=O)NCCc1c[nH]c2ccc(Cl)cc12`, the TGI in the experiment with A549 NSCLC, in the experiment with ACHN renal, with CAKI-1 renal, in the experiment on HT29 colon, with MCF7 breast and in the experiment on MDA-MB-435 was > 100 µM each time. The TGI in the experiment with MOLT-4 leukemia, with NCI/ADR-RES ovarian, in the experiment on RPMI-8226 leukemia, with SF-268 CNS, with SN12C renal and with SNB-19 CNS was > 100 µM each time. For the same compound, the TGI in the experiment with SW-620 colon was > 100 µM.

Consider `CC1(C)C2CCC3(OCCO3)C1C1OC12` (stereo unspecified), for which the TGI in the experiment with A498 renal, in the experiment with A549 NSCLC, in the experiment with ACHN renal, in the experiment on CAKI-1 renal, with HT29 colon and in the experiment on MOLT-4 leukemia was > 100 µM throughout. Further, the TGI in the experiment on RPMI-8226 leukemia, in the experiment on SF-268 CNS, in the experiment on SNB-19 CNS and in the experiment on SW-620 colon was > 100 µM in each case.

With `CN1CCN(C(=S)N(C(=O)c2ccco2)c2ccccc2)CC1`, the TGI in the experiment with A549 NSCLC, in the experiment with ACHN renal, in the experiment on HT29 colon, with MCF7 breast, with MDA-MB-435 and in the experiment on MOLT-4 leukemia was > 100 µM throughout. Further, the TGI in the experiment with RPMI-8226 leukemia, in the experiment on SF-268 CNS, with SN12C renal, in the experiment with SNB-19 CNS and in the experiment with SW-620 colon was > 100 µM each time.

Take `COc1ccccc1S(=O)Nc1ccccc1` (stereo unspecified): the TGI in the experiment on A549 NSCLC, in the experiment on ACHN renal, with HT29 colon, with MCF7 breast, in the experiment with MDA-MB-435 and in the experiment on MOLT-4 leukemia was > 100 µM throughout. For the same compound, the TGI in the experiment on NCI/ADR-RES ovarian, in the experiment with RPMI-8226 leukemia, in the experiment with SF-268 CNS, with SN12C renal, in the experiment with SNB-19 CNS and with SW-620 colon was > 100 µM in each case.

Regarding `CCN(CC)Cc1nc(C2CCC([N+](=O)[O-])O2)no1` (stereo unspecified), the TGI with A549 NSCLC is > 100 µM; in the experiment on ACHN renal, > 100 µM; in the experiment on CAKI-1 renal, > 100 µM; in the experiment on HT29 colon, 44.5 µM; in the experiment with MCF7 breast it was 32.2 µM; in the experiment on MDA-MB-435 it was 35.7 µM. Also, the TGI was > 100 µM in the experiment on MOLT-4 leukemia; 76.3 µM in the experiment on NCI/ADR-RES ovarian; > 100 µM with RPMI-8226 leukemia; 79.6 µM in the experiment with SF-268 CNS; > 100 µM in the experiment on SN12C renal; 87.8 µM with SNB-19 CNS. The compound further had a TGI with SW-620 colon of 35.9 µM.
